Laboratory results from patent US10988477B2 (Merck Patent GmbH, priority 2018, dated 2021).
Where two headings read alike, the source gives them in different places.

How the values were obtained:
[1] = target: intracellular GCN2 (phosphorylation of the GCN2 substrate eIF2α) (Homo sapiens, UniProt Q9P2K8); experiment: GCN2 cellular inhibition assay (AlphaScreen SureFire P-eIF2α Ser51, borrelidin-treated U2OS cells); assay type: cell-based
Summary of the method: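 U2OS cells, adhered overnight, received compounds in 4-fold serial dilutions from 40 μM final, then 10 μM borrelidin for 1 h at 37 °C. Lysates were read by AlphaScreen for phospho-eIF2α Ser51; percent inhibition was set against borrelidin-only wells.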

GCN2 kinase = GCN2 kinase (Homo sapiens, UniProt Q9P2K8); experiment: GCN2 enzyme inhibition assay (Transcreener ADP2 fluorescence polarization); assay type: biochemical; conditions: 280 μM ATP
Summary of the method: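 ADP formation read by Transcreener FP after a 1 h, 25 °C kinase reaction containing 280 μM ATP, 200 μM (RS)7 substrate and 4 nM GCN2, pH 7.5 Tris buffer. Compounds (0–8 μM final) were added 10 min before ATP. Percent inhibition gave IC50 and apparent Ki via tight-binding fit.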

[2] = compounds of Formula IV, biomarker assay, phosphorylated eIF2α Ser51 in borrelidin-treated U2OS cells
[3] = Enzyme activity for compounds of Formula IV, Ki(app), 25° C.
[4] = compounds of Formula II, biomarker assay, phosphorylated eIF2α Ser51 in borrelidin-treated U2OS cells
[5] = compounds of Formula II, 4 nM GCN2 kinase

Chain of intracellular GCN2 (phosphorylation of the GCN2 substrate eIF2α) (Q9P2K8 whole entry): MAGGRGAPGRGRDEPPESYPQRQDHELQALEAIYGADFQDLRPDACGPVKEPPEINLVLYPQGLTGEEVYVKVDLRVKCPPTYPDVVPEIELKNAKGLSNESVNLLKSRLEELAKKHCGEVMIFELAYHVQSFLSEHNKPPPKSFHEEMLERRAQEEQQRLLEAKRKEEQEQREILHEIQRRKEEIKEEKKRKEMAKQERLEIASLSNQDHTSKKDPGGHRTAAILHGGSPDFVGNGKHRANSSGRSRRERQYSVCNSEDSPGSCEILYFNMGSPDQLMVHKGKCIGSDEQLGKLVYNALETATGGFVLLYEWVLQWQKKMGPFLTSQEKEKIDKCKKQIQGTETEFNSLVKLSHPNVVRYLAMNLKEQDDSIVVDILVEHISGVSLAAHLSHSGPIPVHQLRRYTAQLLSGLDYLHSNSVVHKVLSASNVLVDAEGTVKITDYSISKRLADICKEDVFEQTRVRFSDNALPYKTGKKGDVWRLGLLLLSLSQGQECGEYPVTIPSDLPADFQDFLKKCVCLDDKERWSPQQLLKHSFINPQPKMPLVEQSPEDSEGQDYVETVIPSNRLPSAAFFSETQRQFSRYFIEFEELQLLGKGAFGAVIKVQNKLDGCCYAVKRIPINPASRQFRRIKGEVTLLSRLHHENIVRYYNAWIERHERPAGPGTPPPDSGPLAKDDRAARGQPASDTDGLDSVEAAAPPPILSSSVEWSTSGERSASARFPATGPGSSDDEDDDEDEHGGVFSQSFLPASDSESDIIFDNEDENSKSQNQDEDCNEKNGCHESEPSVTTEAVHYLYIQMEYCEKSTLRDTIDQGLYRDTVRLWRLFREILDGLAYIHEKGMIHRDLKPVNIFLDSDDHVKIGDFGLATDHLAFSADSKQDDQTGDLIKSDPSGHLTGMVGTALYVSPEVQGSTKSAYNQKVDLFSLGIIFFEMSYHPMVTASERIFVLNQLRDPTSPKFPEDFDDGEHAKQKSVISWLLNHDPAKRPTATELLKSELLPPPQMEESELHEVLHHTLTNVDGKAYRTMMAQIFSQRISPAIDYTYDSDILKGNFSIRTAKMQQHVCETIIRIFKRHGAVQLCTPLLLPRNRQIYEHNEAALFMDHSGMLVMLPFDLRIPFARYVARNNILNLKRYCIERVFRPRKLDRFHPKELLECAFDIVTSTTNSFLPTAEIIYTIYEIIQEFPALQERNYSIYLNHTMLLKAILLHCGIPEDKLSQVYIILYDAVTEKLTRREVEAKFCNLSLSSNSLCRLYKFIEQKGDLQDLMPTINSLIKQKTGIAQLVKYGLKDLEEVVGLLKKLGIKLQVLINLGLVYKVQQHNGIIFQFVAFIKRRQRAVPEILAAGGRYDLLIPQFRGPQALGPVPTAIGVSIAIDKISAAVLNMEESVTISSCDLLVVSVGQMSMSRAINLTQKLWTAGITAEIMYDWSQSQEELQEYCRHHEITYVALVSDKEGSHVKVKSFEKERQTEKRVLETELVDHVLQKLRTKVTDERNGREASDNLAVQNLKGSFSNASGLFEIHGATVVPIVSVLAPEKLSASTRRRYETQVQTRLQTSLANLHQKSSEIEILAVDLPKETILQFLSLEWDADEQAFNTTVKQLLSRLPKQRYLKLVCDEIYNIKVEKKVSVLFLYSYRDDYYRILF
Chain of GCN2 kinase (Q9P2K8 whole entry): as above

IC50 [1, 2]	Ki (GCN2 kinase; [3])	IC50 [1, 4]	Ki (GCN2 kinase; [5])	SMILES	further results
> 5 µM	0.1 to 1 µM			FC(F)c1cn2c(-c3nccc(N4CCOCC4)n3)cnc2cn1 [IV-104, 4-(2-(6-(Difluoromethyl)imidazo[1,2-a]pyrazin-3-yl)pyrimidin-4-yl)morpholine]	
> 5 µM	0.1 to 1 µM			CNC(=O)c1cc(C2CCCN(c3ccnc(-c4cnc5cnc(C(F)F)cn45)n3)C2)n[nH]1 (stereo not shown) [IV-95, 3-(1-(2-(6-(Difluoromethyl)imidazo[1,2-a]pyrazin-3-yl)pyrimidin-4-yl)piperidin-3-yl)-N-methyl-1H-pyrazole-5-carboxamide]	
		> 5 µM	0.01 to 1 µM	CC1(NS(C)(=O)=O)CCCN(c2cc(-c3cnc4ccc(C(F)F)nn34)ncn2)C1 (stereo not shown) [II-446, N-(1-(6-(6-(Difluoromethyl)imidazo[1,2-b]pyridazin-3-yl)pyrimidin-4-yl)-3-methylpiperidin-3-yl)methanesulfonamide]	
		0.5 to 5 µM	0.01 to 1 µM	C[C@H]1[C@@H](CO)CCCN1c1cc(-c2cnc3ccc(C(F)F)nn23)ncn1 (single isomer, unassigned) [II-392]	
		> 5 µM	0.01 to 1 µM	CN=S(C)(=O)CC1CCCN(c2cc(-c3cnc4ccc(C(F)F)nn34)ncn2)C1 (stereo not shown) [II-26, [1-[6-[6-(Difluoromethyl)imidazo[1,2-b]pyridazin-3-yl]pyrimidin-4-yl]-3-piperidyl]methyl-methyl-methylimino-oxo-sulfane]	
				CC1CN(c2ccnc(-c3cnc4sc(C(F)F)cn34)n2)CC(CNS(C)(=O)=O)C1(F)F (stereo not shown) [Compound V-14, N-[[1-[2-[2-(Difluoromethyl)imidazo[2,1-b]thiazol-5-yl]pyrimidin-4-yl]-4,4-difluoro-5-methyl-3-piperidyl]methyl]methanesulfonamide]	IC50 ([1]; compounds of Formula V, U2OS cells, 10 μM borrelidin, 1 h, read-out: GCN2 Biomarker (IC50)): 0.5 to 5 µM; Ki (GCN2 kinase; compounds of Formula V, 4 nM GCN2 kinase): 0.01 to 0.1 µM
		> 5 µM	0.01 to 1 µM	O=C1CCCC2CN(c3cc(-c4cnc5ccc(Cl)nn45)ccn3)CCN12 (stereo not shown) [II-207, 2-(4-(6-Chloroimidazo[1,2-b]pyridazin-3-yl)pyridin-2-yl)hexahydro-1H-pyrido[1,2-a]pyrazin-6(2H)-one]	
		< 0.5 µM	< 0.01 µM	CC1C(CNS(C)(=O)=O)NCCN1c1cc(-c2cnc3ccc(C(F)F)nn23)ncn1 (stereo not shown) [II-313, N-[[4-[6-[6-(Difluoromethyl)imidazo[1,2-b]pyridazin-3-yl]pyrimidin-4-yl]-3-methyl-piperazin-2-yl]methyl]methanesulfonamide]	
		< 0.5 µM	< 0.01 µM	CC1CN(c2cc(-c3cnc4ccc(C(F)F)nn34)ncn2)CC(CNS(C)(=O)=O)C1=O (stereo not shown) [II-526, N-((1-(6-(6-(Difluoromethyl)imidazo[1,2-b]pyridazin-3-yl)pyrimidin-4-yl)-5-methyl-4-oxopiperidin-3-yl)methyl)methanesulfonamide]	
		0.5 to 5 µM	0.01 to 1 µM	CC1C(CNS(C)(=O)=O)CCN1c1cc(-c2cnc3ccc(C(F)F)nn23)ncn1 (stereo not shown) [II-243, N-((1-(6-(6-(Difluoromethyl)imidazo[1,2-b]pyridazin-3-yl)pyrimidin-4-yl)-2-methylpyrrolidin-3-yl)methyl)methanesulfonamide]	
0.5 to 5 µM	0.01 to 0.1 µM			CC1CN(c2cc(Cl)nc(-c3cnc4cnc(C(F)(F)F)cn34)n2)C(C)C(c2cn[nH]c2)N1 (stereo not shown) [IV-567, 3-(4-Chloro-6-(2,5-dimethyl-3-(1H-pyrazol-4-yl)piperazin-1-yl)pyrimidin-2-yl)-6-(trifluoromethyl)imidazo[1,2-a]pyrazine]	
		0.5 to 5 µM	0.01 to 1 µM	CS(=O)(=O)NCC1CN(c2cc(-c3cnc4ccc(C(F)F)nn34)ncn2)CCC1(F)F (single isomer, unassigned) [II-1, N-((1-(6-(6-(Difluoromethyl)imidazo[1,2-b]pyridazin-3-yl)pyrimidin-4-yl)-4,4-difluoropiperidin-3-yl)methyl)methanesulfonamide]	
		0.5 to 5 µM	0.01 to 1 µM	CC1CC(CNS(C)(=O)=O)C(C)N(c2cc(-c3cnc4ccc(C(F)F)nn34)ncn2)C1 (single isomer, unassigned) [II-545, N-((1-(6-(6-(Difluoromethyl)imidazo[1,2-b]pyridazin-3-yl)pyrimidin-4-yl)-2,5-dimethylpiperidin-3-yl)methyl)methanesulfonamide]	
0.5 to 5 µM	< 0.01 µM			FC(F)(F)c1cn2c(-c3nccc(N4CCC(c5c[nH]nc5C(F)(F)F)C4)n3)cnc2cn1 (stereo not shown) [IV-572, 6-(Trifluoromethyl)-3-(4-(3-(3-(trifluoromethyl)-1H-pyrazol-4-yl)pyrrolidin-1-yl)pyrimidin-2-yl)imidazo[1,2-a]pyrazine]	
		0.5 to 5 µM	0.01 to 1 µM	CC1C(c2cn[nH]c2)NCCN1c1cc(-c2cnc3ccc(C(F)(F)F)nn23)ncn1 (stereo not shown) [II-706, 3-(6-(2-Methyl-3-(1H-pyrazol-4-yl)piperazin-1-yl)pyrimidin-4-yl)-6-(trifluoromethyl)imidazo[1,2-b]pyridazine]	
		> 5 µM	0.01 to 1 µM	FC(F)c1ccc2ncc(-c3cc(N4CCCC(Cn5ccnn5)C4)ncn3)n2n1 (stereo not shown) [II-327, 3-(6-(3-((1H-1,2,3-Triazol-1-yl)methyl)piperidin-1-yl)pyrimidin-4-yl)-6-(difluoromethyl)imidazo[1,2-b]pyridazine]	
0.5 to 5 µM	0.1 to 1 µM			CC1CN(c2nccc(-c3cnc4cnc(Br)cn34)n2)C(C)C(c2cn[nH]c2)N1 (single isomer, unassigned) [IV-404, 6-Bromo-3-(2-(2,5-dimethyl-3-(1H-pyrazol-4-yl)piperazin-1-yl)pyrimidin-4-yl)imidazo[1,2-a]pyrazine]	
> 5 µM	0.1 to 1 µM			OCCc1cc(C2CCCN(c3ccnc(-c4cnc5cnc(C(F)F)cn45)n3)C2)n[nH]1 (stereo not shown) [IV-92, 2-(3-(1-(2-(6-(Difluoromethyl)imidazo[1,2-a]pyrazin-3-yl)pyrimidin-4-yl)piperidin-3-yl)-1H-pyrazol-5-yl)ethan-1-ol]	
		0.5 to 5 µM	< 0.01 µM	CS(=O)(=O)NCC1CC(O)CN(c2cc(-c3cnc4ccc(C(F)F)nn34)ncn2)C1 (stereo not shown) [II-13, N-((1-(6-(6-(Difluoromethyl)imidazo[1,2-b]pyridazin-3-yl)pyrimidin-4-yl)-5-hydroxypiperidin-3-yl)methyl)methanesulfonamide]	
> 5 µM	0.1 to 1 µM			FC(F)c1cn2c(-c3nccc(N4CCC(c5cccnc5)C4)n3)cnc2cn1 (stereo not shown) [IV-76, 6-(Difluoromethyl)-3-(4-(3-(pyridin-3-yl)pyrrolidin-1-yl)pyrimidin-2-yl)imidazo[1,2-a]pyrazine]	
> 5 µM	0.01 to 0.1 µM			CC1(C)CN(c2ccnc(-c3cnc4cnc(Br)cn34)n2)CC(c2cn[nH]c2)N1 (stereo not shown) [IV-354, 6-Bromo-3-(4-(3,3-dimethyl-5-(1H-pyrazol-4-yl)piperazin-1-yl)pyrimidin-2-yl)imidazo[1,2-a]pyrazine]	
0.5 to 5 µM	< 0.01 µM			CC1CN(c2nccc(-c3cnc4cnc(C(F)(F)F)cn34)n2)C(C)C(c2cn[nH]c2)N1 (single isomer, unassigned) [IV-369, 3-(2-(2,5-Dimethyl-3-(1H-pyrazol-4-yl)piperazin-1-yl)pyrimidin-4-yl)-6-(trifluoromethyl)imidazo[1,2-a]pyrazine]	
		0.5 to 5 µM	0.01 to 1 µM	CN(C)S(=O)(=O)NCC1CCCN(c2cc(-c3cnc4ccc(C(F)F)nn34)ncn2)C1 (stereo not shown) [II-348, 3-((1-(6-(6-(Difluoromethyl)imidazo[1,2-b]pyridazin-3-yl)pyrimidin-4-yl)piperidin-3-yl)methyl)-1,1-dimethylsulfuric Diamide]	
